From US6323186A, “Phosphate-bound polyazaindacene derivatives of nucleotides” (Molecular Probes, Inc., priority 2000, dated 2001)

Assay: Relative quantum yield determination for labeled nucleotides
Assay type: physicochemical
From the text: […] The concentration of this solution is matched with that of a solution of Compound 2 in the same solvent by matching the optical density (OD) at the absorption wavelength maximum, which is 504 nm for both samples.

[1] = in methanol, relative to reference fluorophore
[2] = pH 9 phosphate buffer, OD matched at absorption maximum, excited at λmax, reference 4,4-difluoro-5,7-dimethyl-4-bora-3a,4a-diaza-s-indacene-3-propionic acid
[3] = pH 9 phosphate buffer, relative to reference fluorophore

Row | Structure (SMILES) | fluorescence quenched [1] [%] | fluorescence yield relative to reference fluorophore [1] [%] | fluorescence yield relative to reference fluorophore [2] [%] | fluorescence quenched [3] [%]
1 | Cc1cc(C)n2c1C=C1C=CC(CNC(=O)CSP(=O)(O)OP(=O)(O)OP(=O)(O)OC[C@H]3O[C@@H](n4cnc5c(=O)[nH]c(N)nc54)[C@H](O)[C@@H]3O)=[N+]1[B-]2(F)F [Compound 2] | 41 | 59 | 11 | 89
2 | Nc1nc2c(ncn2[C@@H]2O[C@H](COP(=O)(O)OP(=O)(O)OP(=O)(O)SCC(=O)NCCCCCNC(=O)COc3ccc(C4=[N+]5C(=Cc6ccc(-c7cccs7)n6[B-]5(F)F)C=C4)cc3)[C@@H](O)[C@H]2O)c(=O)[nH]1 [Compound 4] | 25 | 75 | 9.1 | 90.9
